The results in this text go back to patent US9029359B2, “Heteroaryl Btk inhibitors” (Biogen Idec MA, Inc., priority 2009, dated 2015).

Structures are written as SMILES. pIC50: −log10 of the molar value. Where only a bound is given, the exact number is not on record here.

The target in the test is T1, BTK (Homo sapiens, UniProt Q06187).
T1 construct: purchased Upstate 14-552
T1 sequence (Q06187 whole entry): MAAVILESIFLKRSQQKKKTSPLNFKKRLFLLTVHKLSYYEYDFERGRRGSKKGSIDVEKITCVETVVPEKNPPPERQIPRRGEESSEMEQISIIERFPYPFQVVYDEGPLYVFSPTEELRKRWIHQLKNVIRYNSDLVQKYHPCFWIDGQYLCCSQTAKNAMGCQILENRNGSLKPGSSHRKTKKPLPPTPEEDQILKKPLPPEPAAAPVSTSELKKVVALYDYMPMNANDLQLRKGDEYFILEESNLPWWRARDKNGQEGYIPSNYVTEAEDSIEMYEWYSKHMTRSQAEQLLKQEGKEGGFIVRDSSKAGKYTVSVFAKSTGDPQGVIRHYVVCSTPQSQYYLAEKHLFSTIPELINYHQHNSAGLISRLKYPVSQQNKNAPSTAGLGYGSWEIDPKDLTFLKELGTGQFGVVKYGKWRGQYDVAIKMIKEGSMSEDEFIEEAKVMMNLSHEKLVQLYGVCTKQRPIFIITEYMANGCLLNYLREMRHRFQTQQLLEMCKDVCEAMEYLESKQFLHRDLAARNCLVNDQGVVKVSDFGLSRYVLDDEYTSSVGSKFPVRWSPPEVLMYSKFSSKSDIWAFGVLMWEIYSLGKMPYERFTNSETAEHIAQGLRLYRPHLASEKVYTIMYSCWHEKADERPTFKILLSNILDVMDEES
Description: In vitro BTK kinase assay: BTK-POLYGAT-LS ASSAY. The test is classed as biochemical. The settings on record: ATP 10 uM. On the procedure:
In vitro BTK kinase assay: BTK-POLYGAT-LS ASSAY. The purpose of the BTK in vitro assay is to determine compound potency against BTK through the measurement of IC50. […] A 24 μL aliquot of a ATP/peptide master mix (final concentration; ATP 10 μM, polyGAT 100 nM) in kinase buffer (10 mM Tris-HCl pH 7.5, 10 mM MgCl2, 200 μM Na3VO4, 5 mM DTT, 0.01% Triton X-100, and 0.2 mg/ml Casein) is added to each well. […] The assay is incubated for 30 minutes before being stopped with 28 μL of a 50 mM EDTA solution. […] The plate is covered and incubated for 45 minutes at room temperature. Time resolved fluorescence (TRF) on Molecular Devices M5 (332 nm excitation; 488 nm emission; 518 nm fluorescein emission) is measured.
In the case of `O=C(CNc1cccc(F)c1F)NC1CCCN(c2ncnc3[nH]ccc23)C1` (stereo not shown) [Example 71, (N-(1-(7H-pyrrolo[2,3-d]pyrimidin-4-yl)piperidin-3-yl)-2-(2,3-difluorophenylamino)acetamide)], the pIC50 is 6.00 to 7.00.

In the case of `O=C(CNC1CCCC1)NC1CCCN(c2ncnc3[nH]ccc23)C1` (stereo not shown) [Example 72], the pIC50 was 5.00 to 6.00.

For `N#Cc1ccc(NCC(=O)NC2CCCN(c3ncnc4[nH]ccc34)C2)cc1C(F)(F)F` (stereo not shown) [Example 73, (N-(1-(7H-pyrrolo[2,3-d]pyrimidin-4-yl)piperidin-3-yl)-2-(4-cyano-3-(trifluoromethyl)phenylamino)acetamide)], the pIC50 is < 5.00. Consider `O=C(CNc1ccc(F)c(C(F)(F)F)c1)NC1CCCN(c2ncnc3[nH]ccc23)C1` (stereo not shown) [Example 74, (N-(1-(7H-pyrrolo[2,3-d]pyrimidin-4-yl)piperidin-3-yl)-2-(4-fluoro-3-(trifluoromethyl)phenylamino)acetamide)], for which the negative-log IC50 (pIC50) was 5.00 to 6.00. In the case of `O=C(CNc1cccc2cn[nH]c12)NC1CCCN(c2ncnc3[nH]ccc23)C1` (stereo not shown) [Example 75], the pIC50 is 5.00 to 6.00. `O=C(CNc1cccc2[nH]ncc12)NC1CCCN(c2ncnc3[nH]ccc23)C1` (stereo not shown) [Example 76, (2-(1H-indazol-4-ylamino)-N-(1-(7H-pyrrolo[2,3-d]pyrimidin-4-yl)piperidin-3-yl)acetamide)] showed a pIC50 of 6.00 to 7.00.

The compound `O=C(CNc1cccc(-n2cccn2)c1)NC1CCCN(c2ncnc3[nH]ccc23)C1` (stereo not shown) [Example 77, (2-(3-(1H-pyrazol-1-yl)phenylamino)-N-(1-(7H-pyrrolo[2,3-d]pyrimidin-4-yl)piperidin-3-yl)acetamide)] had a pIC50 of 6.00 to 7.00. With `Cn1ncc2c(NCC(=O)NC3CCCN(c4ncnc5[nH]ccc45)C3)cccc21` (stereo not shown) [Example 78, (N-(1-(7H-pyrrolo[2,3-d]pyrimidin-4-yl)piperidin-3-yl)-2-(1-methyl-1H-indazol-4-ylamino)acetamide)], the negative-log IC50 (pIC50) was 5.00 to 6.00. In the case of `O=C(CNc1ccn(-c2ccccc2)n1)NC1CCCN(c2ncnc3[nH]ccc23)C1` (stereo not shown) [Example 79, (N-(1-(7H-pyrrolo[2,3-d]pyrimidin-4-yl)piperidin-3-yl)-2-(1-phenyl-1H-pyrazol-3-ylamino)acetamide)] it was < 5.00; in that of `Cn1ccc(NCC(=O)NC2CCCN(c3ncnc4[nH]ccc34)C2)n1` (stereo not shown) [Example 80, (N-(1-(7H-pyrrolo[2,3-d]pyrimidin-4-yl)piperidin-3-yl)-2-(1-methyl-1H-pyrazol-3-ylamino)acetamide)], 5.00 to 6.00; in that of `O=C(CNc1cccc2cccnc12)NC1CCCN(c2ncnc3[nH]ccc23)C1` (stereo not shown) [Example 81, (N-(1-(7H-pyrrolo[2,3-d]pyrimidin-4-yl)piperidin-3-yl)-2-(quinolin-8-ylamino)acetamide)], 5.00 to 6.00. `O=C(CNc1cccc(SC(F)(F)F)c1)NC1CCCN(c2ncnc3[nH]ccc23)C1` (stereo not shown) [Example 82, (N-(1-(7H-pyrrolo[2,3-d]pyrimidin-4-yl)piperidin-3-yl)-2-(3-(trifluoromethylthio)phenylamino)acetamide)] gave a pIC50 of 6.00 to 7.00. In turn, `O=C(CNc1cccc(N2CCOCC2)c1)NC1CCCN(c2ncnc3[nH]ccc23)C1` (stereo not shown) [Example 83, (N-(1-(7H-pyrrolo[2,3-d]pyrimidin-4-yl)piperidin-3-yl)-2-(3-morpholinophenylamino)acetamide)] had a pIC50 of 5.00 to 6.00.

`Cc1cccc(NCC(=O)NC2CCCN(c3ncnc4[nH]ccc34)C2)c1C` (stereo not shown) [Example 84, (N-(1-(7H-pyrrolo[2,3-d]pyrimidin-4-yl)piperidin-3-yl)-2-(2,3-dimethylphenylamino)acetamide)] had a pIC50 of 6.00 to 7.00. In the case of `O=C(CNc1ccccc1)N(Cc1ccccc1)C1CCCN(c2ncnc3[nH]ccc23)C1` (stereo not shown) [Example 86, (N-(1-(7H-pyrrolo[2,3-d]pyrimidin-4-yl)piperidin-3-yl)-N-benzyl-2-(phenylamino)acetamide)] it was 5.00 to 6.00; in that of `O=C(CNc1ccccc1)N(CCc1ccccc1)C1CCCN(c2ncnc3[nH]ccc23)C1` (stereo not shown) [Example 87, (N-(1-(7H-pyrrolo[2,3-d]pyrimidin-4-yl)piperidin-3-yl)-N-phenethyl-2-(phenylamino)acetamide)], 6.00 to 7.00.

`O=C(CNc1ccccc1)N(CC1CCCCC1)C1CCCN(c2ncnc3[nH]ccc23)C1` (stereo not shown) [Example 88, (N-(1-(7H-pyrrolo[2,3-d]pyrimidin-4-yl)piperidin-3-yl)-N-(cyclohexylmethyl)-2-(phenylamino)acetamide)] gave a pIC50 of 5.00 to 6.00. With `O=C(CNC(=O)c1ccccc1Cl)NC1CCCN(c2ncnc3[nH]ccc23)C1` (stereo not shown) [Example 92, (N-(2-(1-(7H-pyrrolo[2,3-d]pyrimidin-4-yl)piperidin-3-ylamino)-2-oxoethyl)-2-chlorobenzamide)], the pIC50 was 5.00 to 6.00.

The compound `O=C(CNC(=O)c1cccc(Cl)c1)NC1CCCN(c2ncnc3[nH]ccc23)C1` (stereo not shown) [Example 93, (N-(2-(1-(7H-pyrrolo[2,3-d]pyrimidin-4-yl)piperidin-3-ylamino)-2-oxoethyl)-3-chlorobenzamide)] showed a pIC50 of 5.00 to 6.00. On to `O=C(CNC(=O)c1ccc(Cl)cc1)NC1CCCN(c2ncnc3[nH]ccc23)C1` (stereo not shown) [Example 94, (N-(2-(1-(7H-pyrrolo[2,3-d]pyrimidin-4-yl)piperidin-3-ylamino)-2-oxoethyl)-4-chlorobenzamide)], for which the pIC50 is 5.00 to 6.00.

For `CC(C)(C)c1ccc(C(=O)NCC(=O)NC2CCCN(c3ncnc4[nH]ccc34)C2)cc1` (stereo not shown) [Example 95, (N-(2-(1-(7H-pyrrolo[2,3-d]pyrimidin-4-yl)piperidin-3-ylamino)-2-oxoethyl)-4-tert-butylbenzamide)], the pIC50 was 6.00 to 7.00.

For the compound `O=C(Cc1ccccc1)NCC(=O)NC1CCCN(c2ncnc3[nH]ccc23)C1` (stereo not shown) [Example 96, (N-(1-(7H-pyrrolo[2,3-d]pyrimidin-4-yl)piperidin-3-yl)-2-(2-phenylacetamido)acetamide)], the pIC50 is 5.00 to 6.00. Take `O=C(CNC(=O)c1cccc2ccccc12)NC1CCCN(c2ncnc3[nH]ccc23)C1` (stereo not shown) [Example 97, (N-(2-(1-(7H-pyrrolo[2,3-d]pyrimidin-4-yl)piperidin-3-ylamino)-2-oxoethyl)-1-naphthamide)]: the negative logarithm of the IC50 (pIC50) is 6.00 to 7.00.

Compound `O=C(CNC(=O)c1ccc2ccccc2c1)NC1CCCN(c2ncnc3[nH]ccc23)C1` (stereo not shown) [Example 98] gave a pIC50 of 6.00 to 7.00. `O=C(CNC(=O)C1CCCCC1)NC1CCCN(c2ncnc3[nH]ccc23)C1` (stereo not shown) [Example 99, (N-(2-(1-(7H-pyrrolo[2,3-d]pyrimidin-4-yl)piperidin-3-ylamino)-2-oxoethyl)cyclohexanecarboxamide)]: the pIC50 is 5.00 to 6.00. As to `C[C@@H](Nc1ccccc1)C(=O)N[C@@H]1CCCN(c2ncnc3[nH]ccc23)C1` [Example 100, (R)—N—((R)-1-(7H-pyrrolo[2,3-d]pyrimidin-4-yl)piperidin-3-yl)-2-(phenylamino)propanamide], the pIC50 was 6.00 to 7.00.

In turn, `C[C@@H](Nc1ccccc1)C(=O)NC1CCCN(c2ncnc3[nH]ccc23)C1` (stereo partly drawn) [Example 101, (2R)—N-(1-(7H-pyrrolo[2,3-d]pyrimidin-4-yl)piperidin-3-yl)-2-(phenylamino)propanamide] had a pIC50 of 6.00 to 7.00. As for `C[C@H](Nc1ccccc1)C(=O)NC1CCCN(c2ncnc3[nH]ccc23)C1` (stereo partly drawn) [Example 102, (2S)—N-(1-(7H-pyrrolo[2,3-d]pyrimidin-4-yl)piperidin-3-yl)-2-(phenylamino)propanamide], the pIC50 was < 5.00.
